In data set [1] the target is T1, sex hormone binding globulin (SHBG) (Homo sapiens, UniProt P04278).
T1 sequence (P04278 30-402): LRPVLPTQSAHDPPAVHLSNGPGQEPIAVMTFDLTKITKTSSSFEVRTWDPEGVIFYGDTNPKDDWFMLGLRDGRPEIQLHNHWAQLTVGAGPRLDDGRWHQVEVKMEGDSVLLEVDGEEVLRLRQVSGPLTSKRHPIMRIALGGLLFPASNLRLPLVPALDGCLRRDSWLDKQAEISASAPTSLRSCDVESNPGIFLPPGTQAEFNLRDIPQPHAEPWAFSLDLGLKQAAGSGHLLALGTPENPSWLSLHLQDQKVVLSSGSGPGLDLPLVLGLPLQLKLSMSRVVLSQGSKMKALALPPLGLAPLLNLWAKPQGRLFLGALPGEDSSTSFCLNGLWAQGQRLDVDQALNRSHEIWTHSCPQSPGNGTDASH
Description: Binding of 5′-MP-^125IUdR-3′-DHT to sex hormone binding globulin (charcoal-dextran, size-exclusion HPLC). As to conditions: FIG. 3. Here is the method:
The tubes were then vortexed for about 30 seconds and incubated for 10 minutes in a water bath at 37° C. The samples were then incubated at 0–4° C. for 3 hours. 0.1 mL aliquots were removed from the samples and counted in a gamma counter. To each tube, 0.4 mL of ice-cold charcoal-dextran solution was added and the tubes were incubated on ice for 15 minutes. The samples were then centrifuged at 4° C. for 20 minutes at 1,000 rpm. 0.5 ml aliquots were taken for gamma-counting and the residue was also counted. Selected samples were analyzed by size-exclusion HPLC (tandem TSK2000 and TSK3000 size exclusion columns (TosoHaas; Montgomeryville, Pa.) with a guard column using PBS, pH7.2 as the eluant).

Data set [2] in a line: Hydrophobicity / aqueous solubility of the conjugates (descriptive). The format is physicochemical.
Data set [3] deals with OVCAR-3 cells. The data set can be described thus: Binding of ^125IUdR-DHT to OVCAR-3 cells in vitro (Scatchard plot, with/without excess cold DHT). Here is the method:
To generate a Scatchard plot for the binding of ^125IUdR-DHT to OVCAR-3 cells, OVCAR-3 cells were thawed from a stock or freshly harvested by a lavage of the peritoneal cavity of athymic mice bearing intraperitoneal ascites OVCAR-3 tumors. The cells were twice washed with full media (RPMI 1640 medium with 2 mM L-glutamine adjusted to contain 1.5 g/L sodium bicarbonate, 4.5 g/L glucose, 10 mM HEPES, and 1.0 mM sodium pyruvate and supplemented with 0.01 mg/ml bovine insulin, 80%; fetal bovine serum, 20%). The cells were spun at 450 rpm for 10 minutes to collect a cell pellet and were then resuspended in full media to achieve approximately 5×10^6 cells/mL. The cells were counted and their viability was determined by Trypan Blue staining. “Cold” dihydrotestosterone (DHT) was dissolved in 95% ethanol to create a stock solution of 5 μg/mL. Similarly, 95% ethanol was added to ^125IUdR-DHT to produce 250,000 cpm/100 μL.
The tubes were capped and gently vortexed. The “total applied” counts were then determined in a gamma counter. […] A known volume of the supernatant from the centrifugation was transfered to new plastic tubes and counted in a gamma counter to determine the “free” counts. The cell pellet with the remainder of the supernatant was then counted in the gamma counter. “Bound” counts were then determined by subtracting counts associated with the supernatant from the remaining counts.

Data set [4] has as its system OVCAR-3 cells. Description: Stability of ^125IUdR-DHT in growth medium in the presence or absence of OVCAR-3 cells (TLC). Format: in vitro ADME. Here is the method: OVCAR-3 cells in full growth medium (RPMI 1640 medium with 2 mM L-glutamine adjusted to contain 1.5 g/L sodium bicarbonate, 4.5 g/L glucose, 10 mM HEPES, and 1.0 mM sodium pyruvate and supplemented with 0.01 mg/ml bovine insulin, 80%; fetal bovine serum, 20%) at 1×10^6 cells per flask were plated onto three Petri dishes and allowed to attach for 24 hours. As a control, one dish without cells was subjected to the same treatments. After 24 hours, the cells were trypsinized from one dish to determine cell number and viability. The media was then aspirated from the remaining dishes, including the control, and replaced with 1 mL of fresh media. 0.1 mCi of ^125IUdR-DHT in 0.10 mL of ethanol was added to all of the dishes. The dishes were incubated at 37° C. At 0, 5, 15, 30, 60, 120, 180, and 240 minutes, 10 μL of media was removed from each of the dishes of which 2 μL was added to a silica gel TLC plate. Additionally, 2 μL was added to glass gamma counter tubes as standards. The TLC plates were run with a 3:1 mixture of ethyl acetate and hexane (v/v). When the solvent front approached the end of the plate, the plate was removed from the solvent, dried, and cut into strips. The standards and the strips were then counted. The percent recovered ^125IUdR-DHT was calculated as a ratio of the intact ^125IUdR-DHT at a given timepoint divided by the intact ^125IUdR-DHT at the 0 minute timepoint (see FIG. 2A). Similar calculations were used to determine the kinetics of the appearance of ^125IUdR in the medium, which was determined to occur at a rate of 8.5%/hour (FIG. 2B). This rate is in comparison to the disappearance of ^125IUdR-DHT from the media at a rate of 16%/hour. […] The inclusion of a negatively-charged monophosphate assists in the retention of these compounds in the cell.
This allows at least a partial retention of the negatively charged succinate inside the cell where the next hydrolytic step frees ^125IUdR to be taken up by DNA.

A short description of data set [5]: Biodistribution in athymic mice bearing AR-expressing OVCAR-3 tumors. The format is in vivo. The source says:
(§1) With regard to ^125IUdR-3′-DHT, the biodistribution of the reagent (0.001–0.010 mCi/mouse; […]) in athymic mice bearing AR-expressing OVCAR-3 tumors is seen in Table 3. Additionally, the efficacy of the reagent against the intraperitoneal OVCAR-3 tumors after 6 fractionated doses (0.1 mCi/dose/mouse; […]) is seen in Table 4.

Data set [6] relates to intraperitoneal OVCAR-3 tumors. Description: Efficacy against intraperitoneal OVCAR-3 tumors after 6 fractionated doses. To be noted: 0.1 mCi/dose/mouse. Format: in vivo, athymic mice.
Text: as §1

Where [7] appears, read: OVCAR-3 cells, full growth medium, 37° C.

Regarding `CC12CCC(=O)CC1CCC1C2CCC2(C)C(OC(=O)CCC(=O)OC3CC(n4cc([125I])c(=O)[nH]c4=O)OC3COP(=O)(O)O)CCC12` (stereo not shown) [5′-MP-^125IUdR-3′-DHT, 5′-monophosphate-^125IUdR-3′-succinyl-DHT], in data set [1], the “binding to SHBG” value is given as “specifically bound” and the “competition of SHBG binding by “cold” DHT” value is on record as “competed away”.
`CC12CCC(=O)CC1CCC1C2CCC2(C)C(OP(=O)(OCC3OC(n4cc([125I])c(=O)[nH]c4=O)CC3O)OC3CCC4C5CCC6CC(=O)CCC6(C)C5CCC34C)CCC12` (stereo not shown) [Conjugate 5, 5′-[^125I]iodo-2′-deoxy-5′-monphosphate-O-(bis-dihydrotestosterone)]: the “hydrophilicity / hydrophobicity relative to the other conjugates” value in data set [2] is “most hydrophobic”.
Consider `CC12CCC(=O)CC1CCC1C2CCC2(C)C(OC(=O)CCC(=O)OC3CC(n4cc([125I])c(=O)[nH]c4=O)OC3CO)CCC12` (stereo not shown) [^125IUdR-DHT, ^125IUdR-3′-succinyl-DHT], for which the “binding to OVCAR-3 cells (Scatchard)” value in the data set with OVCAR-3 cells [3] (5 × 10^6 cells, 0–4° C., 14–16 hours) is given as “single type of binding sites with a high affinity”. The “competition by excess DHT for binding” value with OVCAR-3 cells [3] (excess “cold” DHT) is reported as “due to the DHT portion of the drug”. Besides, the “rate of appearance of ^125IUdR in the medium” value in the data set on OVCAR-3 cells [4] (setting [7]) is on record as 8.5 %/hour. Further, in the data set with OVCAR-3 cells [4] (setting [7]), the “rate of disappearance of ^125IUdR-DHT from the media” value stood at 16 %/hour. The “emergence of “free” ^125IUdR in the growth medium” value with OVCAR-3 cells [4] (presence or absence of OVCAR-3 cells) is “requires interaction of the drugs with specific cells”. Further, the “Percent injected dose per gram tissue” value in data set [5] (Blood, 1.5 h, average of n = 10) was 29.61 Percent injected dose per gram tissue; in data set [5] (Blood, 24 h, average of n = 10), 0.25 Percent injected dose per gram tissue; in data set [5] (Blood, 48 h, average of n = 10), 0.30 Percent injected dose per gram tissue; in data set [5] (Blood, 72 h, average of n = 10), 0.17 Percent injected dose per gram tissue; in data set [5] (Brain, 1.5 h), 1.91 Percent injected dose per gram tissue; in data set [5] (Brain, 24 h), 0.03 Percent injected dose per gram tissue. Further, the “Percent injected dose per gram tissue” value in data set [5] (Brain, 48 h) is listed as 0.05 Percent injected dose per gram tissue; in data set [5] (Brain, 72 h), 0.04 Percent injected dose per gram tissue; in data set [5] (Kidney, 1.5 h), 17.67 Percent injected dose per gram tissue; in data set [5] (Kidney, 24 h), 0.20 Percent injected dose per gram tissue; in data set [5] (Kidney, 48 h), 0.18 Percent injected dose per gram tissue; in data set [5] (Kidney, 72 h), 0.22 Percent injected dose per gram tissue. Further, the “Percent injected dose per gram tissue” value is 11.07 Percent injected dose per gram tissue in data set [5] (Liver, 1.5 h); 0.24 Percent injected dose per gram tissue in data set [5] (Liver, 24 h); 0.32 Percent injected dose per gram tissue in data set [5] (Liver, 48 h); 0.33 Percent injected dose per gram tissue in data set [5] (Liver, 72 h); 20.70 Percent injected dose per gram tissue in data set [5] (OVCAR-3 tumor (IP), 1.5 h); 5.66 Percent injected dose per gram tissue in data set [5] (OVCAR-3 tumor (IP), 24 h). The “Percent injected dose per gram tissue” value in data set [5] (OVCAR-3 tumor (IP), 48 h) is on record as 5.41 Percent injected dose per gram tissue; in data set [5] (OVCAR-3 tumor (IP), 72 h), 3.54 Percent injected dose per gram tissue; in data set [5] (Spleen, 1.5 h) it was 15.60 Percent injected dose per gram tissue; in data set [5] (Spleen, 24 h), 0.59 Percent injected dose per gram tissue; in data set [5] (Spleen, 48 h) it was 0.44 Percent injected dose per gram tissue; in data set [5] (Spleen, 72 h), 0.59 Percent injected dose per gram tissue. Also, the “Percent injected dose per gram tissue” value was 11.43 Percent injected dose per gram tissue in data set [5] (Uterus, 1.5 h); 0.54 Percent injected dose per gram tissue in data set [5] (Uterus, 24 h); 0.66 Percent injected dose per gram tissue in data set [5] (Uterus, 48 h); 0.97 Percent injected dose per gram tissue in data set [5] (Uterus, 72 h); 12.94 Percent injected dose per gram tissue in data set [5] (solid OVCAR-3 (approximately 2 mice per group), 1.5 h); 0.67 Percent injected dose per gram tissue in data set [5] (solid OVCAR-3 (approximately 2 mice per group), 24 h). The “Percent injected dose per gram tissue” value in data set [5] (solid OVCAR-3 (approximately 2 mice per group), 48 h) is listed as 0.28 Percent injected dose per gram tissue; in data set [5] (solid OVCAR-3 (approximately 2 mice per group), 72 h), 0.24 Percent injected dose per gram tissue. This compound also gave a median tumor size in data set [6] of 0.244 g. Besides, the “range (tumor size)” value in data set [6] is 0.012 to 0.781 g. Also, in data set [6] (average (n = 10) and standard deviation), the mean tumor burden amounted to 0.304 ± 0.320 g.

(Values after patent US7220730B2, “Cancer specific radiolabeled conjugates regulated by the cell cycle for the treatment and diagnosis of cancer” (Board of Regents of the University of Nebraska, priority 2003, dated 2007).)
